Experimental data taken from US20120083522A1, “MODULATION OF INFLAMMATORY RESPONSES BY FACTOR XI” (Isis Pharmaceuitcals, inc., priority 2009, published 2012).
In the oligonucleotide strings, read from the 5' end, every base follows the letter of its sugar. An asterisk marks phosphorothioate; unmarked linkages are phosphodiester. Other units and linkages are bracketed, terminal groups are in braces. A string of capitals states the bases alone. e = 2'-O-(2-methoxyethyl) (MOE); [5mC] = 5-methylcytosine; d = 2'-deoxy (DNA)

Assays:
[1] = tested on: collagen-induced arthritis (CIA) model; assay: Arthritis Study A: collagen-induced arthritis (Example 11); format: in vivo, DBA/1J mice; conditions: DBA/1J mice, 20 mg/kg s.c. twice a week for 12 weeks
Protocol: The effect of inhibition of Factor XI and its role in fibrin accumulation in the joints leading to joint inflammation and rheumatoid arthritis was evaluated in a murine collagen-induced arthritis (CIA) model. […] Arthritis induced in mice administered collagen can be visually assessed and clinically scored as described by Marty et al. (J Clin Invest, 107:631-640, 2001) where 1 point is given for each swollen digit except the thumb (maximum, 4), 1 point is given for the tarsal or carpal joint, and 1 point is given for the metatarsal or metacarpal joint with a maximum score of […]. Each paw was graded individually, the cumulative clinical arthritic score per mouse reaching a maximum of 22 points
In a group of 15 DBA/1J mice, 20 mg/kg of ISIS 404071 was injected subcutaneously twice a week for 12 weeks. One control group of 15 mice was injected with 20 mg/kg of ISIS 403102 twice a week for 12 weeks. Two control groups of 15 mice each were injected with PBS twice a week for 12 weeks. Two weeks after the first oligonucleotide dose, type II bovine collagen (Chondrex Inc, Redmond, Wash.) was mixed with complete Freund's adjuvant, homogenized on ice and the emulsion, containing 100 μg of collagen, was injected subcutaneously at the base of the tail in the Factor XI group, the Factor VII group and one of the PBS control groups. A booster injection containing 100 μg collagen type II in incomplete Freund's adjuvant was injected subcutaneously at the base of the tail at a different injection site on day 21 after the first collagen injection in these groups.
Starting 35 days from the first collagen injection, mice in all groups were examined daily for the visual appearance of arthritis, such as swelling and stiffness, in peripheral joints. The results are presented in Table 20 (expressed as a percentage of the PBS control) and in FIGS. 1-3.
‘Incidence of CIA’ refers to the percentage of mice in each group that had CIA at day 40. The ‘percentage of paws affected’ refers to the percentage of paws out of a total of 60 paws in each group of mice that were affected with arthritis. ‘Average number of affected paws’ refers to the number of affected paws in mice that were diagnosed to have arthritis. The ‘clinical severity of CIA’ was scored as described by Marty et al. (J Clin Invest, 107:631-640, 2001) and as follows: 1 point for each swollen digit except the thumb (maximum, 4), 1 point for the tarsal or carpal joint, and 1 point for the metatarsal or metacarpal joint with a maximum score of 6 for a hindpaw and 5 for a forepaw. Each paw was graded individually, the cumulative clinical arthritic score per mouse reaching a maximum of 22 points.

[2] = tested on: DSS-induced colitis model; assay: Colitis Study A: DSS-induced colitis, body weight and colon length (Example 12); format: in vivo, Swiss Webb mice
Protocol: The effect of antisense oligonucleotide inhibition of Factor XI and its role in ameliorating colitis was evaluated in a dextran sulfate sodium (DSS)-induced colitis model. Administration of DSS to animals is a well known method to induce […] and has been previously described by Okayasu et al. (Gastroenterology, 1990, 98:694-702), Cooper et al. (Lab Invest, 1993, 69:238-249) and Dieleman et al. (Clin Exp Immunol, 1998, 114:385-391).
In groups of 8 Swiss Webb mice, 20 mg/kg of ISIS 404071 or ISIS 403102 were injected subcutaneously twice a week for 3 weeks. Two control groups of 8 mice each were injected with PBS twice a week for 3 weeks. After the oligonucleotide treatments, 4% DSS in water was administered ad libitum for 6 days to the experimental groups and one PBS control group.
Mice in all groups were weighed at day 0. Mice were sacrificed at the end of the study on day 7 after DSS was administered and their body weights and colon lengths were measured. Results are presented in Table 24 (expressed as a percentage of the PBS control) and FIG. 7.
Colon length was assessed in the DSS-induced colitis mice.

[3] = tested on: DSS-induced colitis model; assay: Colitis Study A: colon tissue histopathology; conditions: FIG. 8, listed as Factor VII ASO
[4] = Tolerability in CD1 mice: body and organ weights (Example 21); format: in vivo; conditions: 50 mg/kg s.c. twice per week for 6 weeks
Protocol: Body weight was measured at the onset of the study and subsequently twice per week. The body weights of the mice are presented in Table 87 and are expressed increase in grams over the PBS control weight taken before the start of treatment. Liver, spleen, and kidney weights were measured at the end of the study, and are also presented in Table 87 as percentage of the body weight.

[5] = Tolerability in CD1 mice: liver function (Example 21); format: in vivo; design: Albumin: unit not given here; conditions: plasma, 50 mg/kg s.c. twice per week for 6 weeks
[6] = Tolerability in CD1 mice: kidney function (Example 21); format: in vivo; conditions: plasma, 50 mg/kg s.c. twice per week for 6 weeks
[7] = Tolerability in CD1 mice: hematology assays (Example 21); format: in vivo; conditions: 50 mg/kg s.c. twice per week for 6 weeks
[8] = Tolerability in Sprague-Dawley rats: body and organ weights (Example 23); format: in vivo; conditions: 50 mg/kg s.c. twice per week for 6 weeks
[9] = Tolerability in Sprague-Dawley rats: liver function (Example 23); format: in vivo; design: Albumin: unit not given here; conditions: plasma, 50 mg/kg s.c. twice per week for 6 weeks
[10] = Tolerability in Sprague-Dawley rats: kidney function (Example 23); format: in vivo
[11] = Tolerability in Sprague-Dawley rats: hematology assays (Example 23); format: in vivo; design: RBC / WBC / Neutrophil / Lymphocyte / Platelets: unit not given here; conditions: blood
[12] = tested on: DSS-induced colitis model; assay: Colitis Study E: weight change, colon length, stool analysis; format: in vivo, Swiss Webb mice; conditions: Colitis Study E, day 7
Protocol: (§1) Two groups 8 Swiss Webb mice were dosed with 40 mg/kg of ISIS 404071 injected subcutaneously twice a week for 3 weeks. Two control groups of 8 Swiss Webb mice were dosed with PBS subcutaneously twice a week for 3 weeks. Both the ASO treated groups and one of the control groups were then given 4% DSS in distilled water for 7 days ad libitum. One of the ASO and DSS treated groups was also given intravenous injections of 20 μg of recombinant human Factor XI protein (Haematologic Technologies Inc.) for 7 consecutive days, starting the day before DSS treatment. Mice were sacrificed at the end of the study on day 7 after DSS was administered.
Mice in all groups were weighed at day 0 and at the end of the study. […] Mice were sacrificed at the end of the study on day 7 after DSS was administered and their colon lengths were measured.

[13] = tested on: thrombin-antithrombin (TAT) complexes; assay: Colitis Study E: TAT levels; format: in vivo, Swiss Webb mice; conditions: Colitis Study E, day 7
Protocol: as §1
Mice with dextran sodium sulfate (DSS)-induced colitis have elevated level of thrombin-antithrombin (TAT) complexes in blood (Anthoni, C. et al., J. Exp. Med. 204: 1595-1601, 2007) and is also observed in patients with ulcerative colitis (Kume, K. et al., Intern Med. 2007. 46: 1323-9). The effect of antisense inhibition of Factor XI on TAT levels in the […] was evaluated (Siemens Healthcare Diagnostics, Deerfield, Ill.) at the end of the study on day 7 after DSS was administered and the results are presented in Table 38.

[14] = tested on: soluble CD40 ligand (CD40L); assay: Colitis Study E: CD40L plasma levels; format: in vivo, Swiss Webb mice; conditions: Colitis Study E, day 7
Protocol: as §1
Plasma levels of soluble CD40 ligand (CD40L) are known to be elevated in cases of inflammatory bowel disease (Ludwiczek, O. et al., Int. J. Colorectal Disease. 2003. 18: 142-147) and may be considered a marker of intestinal inflammation. The effect of antisense inhibition of Factor XI on CD40L levels in the plasma was evaluated at the end of the study on day 7 after DSS was administered and the results are presented in Table 39. CD40L levels in plasma were measured by commercially available ELISA kits (Bender MedSystems, Vienna, Austria, eBioscience, San Diego, Calif.) according to the manufacture's protocols.

[15] = tested on: bradykinin; assay: Colitis Study E: bradykinin levels in colon; format: in vivo, Swiss Webb mice; conditions: Colitis Study E, day 7
Protocol: as §1
The effect of antisense inhibition of Factor XI on kinin levels in the colon was evaluated (Phoenix Pharmaceuticals, Burlingame, Calif.) at the end of the study on day 7 after DSS was administered and the results are presented in Table 40.

[16] = tested on: IFN-γ, IL-10, IL-12, IL-1β, IL-2, IL-4, IL-5, TNF-α, KC; assay: Colitis Study E: cytokine levels in colon (multiplex ELISA); format: in vivo, Swiss Webb mice; conditions: Colitis Study E, day 7
Protocol: as §1
The cytokine levels of IFN-γ, IL-10, IL-12, IL-1β, IL-2, IL-4, IL-5, TNF-α, and keratinocyte chemoattractant (KC) were measured in the colon of the mice groups at the end of the study on day 7 after DSS was administered. Colons were homogenized on ice in PBS supplemented with protease inhibitors (Sigma, St. Louis, Mo.) and extracted with rotation at 4° C. for 1 hour. After removal of insoluble material by centrifugation, colon homogenates were used for the cytokine analysis by multiplex ELISA (Mouse TH1/TH2 9-Plex Ultra-Sensitive Kit, Meso Scale Discovery, Gaithersburg, Md.) according to the manufacture's protocol. Cytokine levels in colon extracts were normalized to the protein concentration measured by protein assay kit (BioRad, Hercules, Calif.). The levels of pro-inflammatory cytokines, IFN-γ, IL-1β, IL-10, IL-2, IL-5, TNF-α, and KC were elevated by DSS administration, and were decreased by treatment with ISIS 404071.

[17] = DSS-induced colitis, day 7, 20 mg/kg s.c. twice a week for 3 weeks, expressed as a percentage of the PBS control
[18] = increase over PBS control weight before start of treatment

CCATAGAACAGCTTCACAGG (e[5mC]*e[5mC]*eA*eT*eA*dG*dA*dA*d[5mC]*dA*dG*d[5mC]*dT*dT*d[5mC]*eA*e[5mC]*eA*eG*eG) [ISIS 403102, reference compound]
Average no. of paws affected ([1]; in mice diagnosed with arthritis): 1 | % of paws affected ([1]; out of 60 paws per group): 19% | % of CIA ([1]; percentage of mice in group with CIA at day 40): 54% | Clinical severity of CIA ([1]; score of Marty et al., maximum 22 points): 4 | body weight (in words) ([2]; Colitis Study A, FIG. 7A/7B): had a decrease in body weight | colon length (in words) ([2]; Colitis Study A, FIG. 7C): had a decrease in colon length | Body weight change [2, 17]: −7% | Colon length change [2, 17]: −34% | colon histology, lesions (in words) [3]: shows the same histology as the DSS control

GGTGCACAGTTTCTGGCAGG (all C 5-methyl, all phosphorothioate, sugars by position not given here; MOE gapmer) [ISIS 413481, 5-10-5 MOE gapmer]
Body weight [4, 18]: 9 g | Kidney weight ([4]; percentage of the body weight): 1.5% | Liver weight ([4]; percentage of the body weight): 6% | Spleen weight ([4]; percentage of the body weight): 0.5% | ALT [5]: 85 IU/L | AST [5]: 143 IU/L | Albumin [5]: 3.2 | Bilirubin [5]: 0.18 mg/dL | Cholesterol [5]: 153 mg/dL | BUN [6]: 23 mg/dL | HCT [7]: 45% | Hemoglobin [7]: 13 g/dL | Lymphocyte [7]: 4329 cells/μL | Monocytes [7]: 204 cells/μL | Neutrophil [7]: 1904 cells/μL | Platelets [7]: 841 10^3/μL | RBC [7]: 9 10^6/μL | WBC [7]: 7 10^3/μL | Body weight [8, 18]: 147 g | Kidney weight ([8]; percentage of the body weight): 0.9% | Liver weight ([8]; percentage of the body weight): 5% | Spleen weight ([8]; percentage of the body weight): 0.3% | ALT [9]: 54 IU/L | AST [9]: 80 IU/L | Albumin [9]: 4 | Bilirubin [9]: 0.22 mg/dL | creatinine [10]: 45 mg/dL | BUN ([10]; plasma): 26 mg/dL | Total urine protein ([10]; total urine samples): 148 mg/dL | Urine protein/creatinine ratio ([10]; total urine samples): 3.6 | HCT [11]: 43% | Hemoglobin [11]: 14.2 g/dL | Lymphocyte [11]: 12707 | Neutrophil [11]: 1046 | Platelets [11]: 552 | RBC [11]: 7.5 | WBC [11]: 14

recombinant Factor XI protein: recombinant human Factor XI protein (Haematologic Technologies Inc.)
colon length (in words) [12]: increase in colon length due to treatment with ISIS 404071 is eliminated | stool softness/diarrhea (in words) [12]: amelioration of diarrhea in mice treated with ISIS 404071 is eliminated | TAT levels (in words) [13]: near restoration of TAT levels to that of the DSS treated mice | CD40L levels in plasma (in words) [14]: restoration of CD40L levels to that of the DSS treated mice | bradykinin levels (in words) [15]: restoration of bradykinin levels to that of the DSS treated mice | pro-inflammatory cytokine levels in colon: IFN-γ, IL-1β, IL-10, IL-2, IL-5, TNF-α, KC (in words) [16]: restoration of cytokine levels to that of the DSS treated mice
